Source: US9163018B2, “Method of treatment of age-related macular degeneration (AMD)” (Prana Biotechnology Limited, priority 2006, dated 2015)

Experiments:
Aβ 1-42 = target: T1, Aβ 1-42 (Homo sapiens, UniProt P05067); assay: Fluorometric H2O2 assay (inhibition of Abeta H2O2 production); format: biochemical; details: concentration required to inhibit 50% of Abeta H2O2 production; read-out: H2O2 IC50
T1 construct: The reaction solutions contained Aβ 1-42 at concentrations
Summary of the method: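 Copper-dependent Aβ H2O2 production measured fluorometrically with deacetylated dichlorofluorescein plus HRP in PBS, pH 7.4. Incubation 60 min at 37 C, test compound included in wells. H2O2 quantified against H2O2 standards.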

[1] = test system: primary cortical neuronal cultured cells; assay: Test compound cytotoxicity, MTS assay, primary cortical neuronal cultures; format: cell-based, mouse; details: for Cytotox (% viable) Neuronal cells at 1 μM: 1 μM test compound; for Cytotox (% viable) Neuronal cells at 10 μM: 10 μM test compound
Summary of the method: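 Primary cortical neurons were cultured five days in Neurobasal/B27, then exposed on day six to compounds (from 2.5 mM DMSO stocks) in medium minus antioxidants, in triplicate for 4 days at 37° C. Viability was measured by MTS, 2 h at 37° C, absorbance at 560 nm.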

[2] = test system: M17 human neuroblastoma cells; assay: Cytotoxicity, M17 human neuroblastoma cells; format: cell-based; details: for Cytotox (% viable) M17 cells at 1 μM: 1 μM test compound; for Cytotox (% viable) M17 cells at 10 μM: 10 μM test compound
Experimental: Assay 3. MTS Assay for Cell Viability
Cell viability is determined using the MTS assay. Culture medium is replaced with fresh neurobasal medium plus B27 supplements minus antioxidants. 1/10th volume MTS solution (Cell Titre 96 Aqueous One, Promega Corporation) and incubated at 37° C., 2 hrs. 200 microliter aliquots are measured with a spectrophotometer at 560 nm.

[3] = test system: Abeta in extract of post-mortem human AD brain tissue; assay: BAS: human brain amyloid solubilization assay; format: biochemical; details: max effect across the concentration range, referenced to baseline PBS
Summary of the method: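 Plaque-bearing post-mortem AD cortex homogenised in ice-cold PBS pH 7.4; soluble Aβ in 100,000×g supernatant, insoluble Aβ from resuspended pellet. Fractions run on Tris-Tricine SDS-PAGE, immunoblotted with W02, densitometry against synthetic Aβ40 standards.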

[4] = target: T2, Abeta:Zn (25:50 μM) Synthetic Aggregations (Homo sapiens, UniProt P05067); assay: Disaggregation of Abeta:Zn synthetic aggregates (ThT fluorescence); format: biochemical; details: for Disaggregation % Aggregate reduction at 5 μM: 5 μM test compound; for EC50: Abeta:Zn 25:50 μM aggregates
T2 construct: PB Compound Mediated Dissolution of Aggregated Abeta 1-42; purchased Keck Laboratory, Yale University School of Medicine
T2 sequence (P05067 672-713 limits assumed): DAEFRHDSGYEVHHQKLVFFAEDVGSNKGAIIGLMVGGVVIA
Summary of the method: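 Abeta1-42 (25 μM) with ZnCl2 (50 μM) and ThT (50 μM) in PBS pH 6.6 was preaggregated 24 h at 37 degrees with rotation. Aggregates were then exposed to compound (final 1-50 μM, DMSO) for 2 h at 37 degrees. ThT fluorescence was read at ex 450/em 480 nm.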

[5] = Mice plasma concentration after oral dose; format: in vivo; details: for Mice plasma concentration: 30 min to 4 h after single or repeat oral dose of 30 mg/kg; for Mice plasma concentration at 10 mg/kg: oral dose 10 mg/kg
Aβ deposits = details: 9 weeks; for Tg Mice % difference from control in Amyloid plaque abundance / Tg Mice % difference from control in insoluble brain amyloid burden / Tg Mice % difference from control in soluble brain amyloid burden: daily oral gavage 30 mg/kg, 13-14 months old transgenic mice
[6] = Toxicity, visual observations in mice; details: duration and visual observations
[7] = test system: dityrosine oligomerization; assay: CuTy: inhibition of dityrosine oligomerization; format: biochemical; details: referenced to in-house standard (set as 100% inhibition)

T1 sequence (P05067 672-713 limits assumed): as above

CCNCc1ccc2c(Cl)cc(Cl)c(O)c2n1.Cl [PB 1051]
IC50 (Aβ 1-42): 380 nM | Cytotox (% viable) Neuronal cells at 1 μM [1]: 87% | Cytotox (% viable) Neuronal cells at 10 μM [1]: 56% | Cytotox (% viable) M17 cells at 1 μM [2]: 78.3% | Cytotox (% viable) M17 cells at 10 μM [2]: 44% | BAS max effect [3]: 270% | Disaggregation % Aggregate reduction at 5 μM [4]: 22.3% | EC50 [4]: > 20000 nM | Mice plasma concentration [5]: Up to 403 ng/ mL ng/mL | Tg Mice % difference from control in Amyloid plaque abundance (Aβ deposits): −39% | Tg Mice % difference from control in insoluble brain amyloid burden (Aβ deposits): −21% | Tg Mice % difference from control in soluble brain amyloid burden (Aβ deposits): slight increase | Toxicity at 30 mg/kg [6]: 10 days, none

Oc1c(Cl)cc(Cl)c2ccc(-c3ccccn3)nc12 [PB 1052]
IC50 (Aβ 1-42): 640 nM | Cytotox (% viable) Neuronal cells at 1 μM [1]: 55% | Cytotox (% viable) Neuronal cells at 10 μM [1]: 31% | BAS max effect [3]: 212% | Disaggregation % Aggregate reduction at 5 μM [4]: 62.8% | EC50 [4]: 3300 nM | Tg Mice % difference from control in Amyloid plaque abundance (Aβ deposits): Decrease insol, Decrease sol, Decrease plaque | Tg Mice % difference from control in insoluble brain amyloid burden (Aβ deposits): Decrease insol, Decrease sol, Decrease plaque | Tg Mice % difference from control in soluble brain amyloid burden (Aβ deposits): Decrease insol, Decrease sol, Decrease plaque

Oc1c(C2CC2)ncc2cccnc12 [PB 1073]
IC50 (Aβ 1-42): 520 nM | Cytotox (% viable) Neuronal cells at 1 μM [1]: 100% | Cytotox (% viable) Neuronal cells at 10 μM [1]: 98% | Disaggregation % Aggregate reduction at 5 μM [4]: 50% | EC50 [4]: 4700 nM | Mice plasma concentration [5]: Up to 350 ng/ mL in mice ng/mL | Toxicity at 30 mg/kg [6]: 6 days, none

O=c1c2c(Cl)cc(Cl)c(O)c2ncn1CCN1CCCC1 [PB 1075]
Cytotox (% viable) Neuronal cells at 1 μM [1]: 104% | Cytotox (% viable) Neuronal cells at 10 μM [1]: 91% | Cytotox (% viable) M17 cells at 1 μM [2]: 103.6% | Cytotox (% viable) M17 cells at 10 μM [2]: 101.3% | Disaggregation % Aggregate reduction at 5 μM [4]: 0% | EC50 [4]: > 20000 nM | Mice plasma concentration [5]: Up to 520 ng/ mL in mice ng/mL | Tg Mice % difference from control in Amyloid plaque abundance (Aβ deposits): −23% | Tg Mice % difference from control in insoluble brain amyloid burden (Aβ deposits): Increase | Tg Mice % difference from control in soluble brain amyloid burden (Aβ deposits): decrease | Toxicity at 30 mg/kg [6]: 14 days, 1 of 4 death

O=c1c2c(Cl)cc(Cl)c(O)c2ncn1Cc1cccc(Cn2cnc3c(O)c(Cl)cc(Cl)c3c2=O)n1 [PB 1101]
IC50 (Aβ 1-42): 4100 nM | Cytotox (% viable) Neuronal cells at 1 μM [1]: 89% | Cytotox (% viable) Neuronal cells at 10 μM [1]: 67% | Cytotox (% viable) M17 cells at 1 μM [2]: 94.9% | Cytotox (% viable) M17 cells at 10 μM [2]: 26.8% | CuTy % inhibition of dityrosine oligomerization [7]: 10% inhibition | Disaggregation % Aggregate reduction at 5 μM [4]: 45% | Toxicity at 30 mg/kg [6]: 10 days, none

CCC(C)n1cnc2c(O)c(Cl)cc(Cl)c2c1=O (stereo not shown) [PB 1112]
Cytotox (% viable) Neuronal cells at 1 μM [1]: 94% | Cytotox (% viable) Neuronal cells at 10 μM [1]: 67% | Cytotox (% viable) M17 cells at 1 μM [2]: 99.2% | Cytotox (% viable) M17 cells at 10 μM [2]: 68.6% | CuTy % inhibition of dityrosine oligomerization [7]: CuTy: 125% inhibition | Disaggregation % Aggregate reduction at 5 μM [4]: 46.4% | EC50 [4]: > 20000 nM | Mice plasma concentration [5]: Up to 2949 ng/ mL ng/mL | Toxicity at 30 mg/kg [6]: 10 days, none

Br.CCN(CC)Cc1nc2c(O)c(Cl)cc(Cl)c2c(=O)[nH]1 [PB 1128]
Cytotox (% viable) Neuronal cells at 1 μM [1]: 100.6% | Cytotox (% viable) Neuronal cells at 10 μM [1]: 93.7% | Cytotox (% viable) M17 cells at 1 μM [2]: 106.5% | Cytotox (% viable) M17 cells at 10 μM [2]: 99.1% | CuTy % inhibition of dityrosine oligomerization [7]: CuTy: 100% inhibition | Disaggregation % Aggregate reduction at 5 μM [4]: 41% | Mice plasma concentration [5]: Up to 2289 ng/ mL ng/mL | Toxicity at 30 mg/kg [6]: 10 days, none

O=c1c2c(Cl)cc(I)c(O)c2ncn1CC1CC1 [PB 1140]
IC50 (Aβ 1-42): 360 nM | Cytotox (% viable) M17 cells at 1 μM [2]: 92.4% | Cytotox (% viable) M17 cells at 10 μM [2]: 98.2% | Disaggregation % Aggregate reduction at 5 μM [4]: 64% | EC50 [4]: 3500 nM | Mice plasma concentration at 10 mg/kg [5]: At 10 mg/kg: Up to 2315 ng/ ml ng/mL | Toxicity at 10 mg/kg [6]: At 10 mg/kg 10 days, none

Br.CN(C)Cc1nc2c(O)c(Cl)cc(Cl)c2c(=O)[nH]1 [PB 1147]
Cytotox (% viable) M17 cells at 1 μM [2]: 94.7% | Cytotox (% viable) M17 cells at 10 μM [2]: 100.3% | CuTy % inhibition of dityrosine oligomerization [7]: CuTy: 100% inhibition | Disaggregation % Aggregate reduction at 5 μM [4]: 12.5% | EC50 [4]: > 20000 nM | Mice plasma concentration [5]: Up tp 642.6 ng/ mL ng/mL | Toxicity at 30 mg/kg [6]: 10 days, none

CCCc1cnc2c(O)c(I)ccn2c1=O [PB 1151]
IC50 (Aβ 1-42): 330 nM | Cytotox (% viable) M17 cells at 1 μM [2]: 80.8% | Cytotox (% viable) M17 cells at 10 μM [2]: 47.6% | Disaggregation % Aggregate reduction at 5 μM [4]: 57% | EC50 [4]: 5600 nM | Mice plasma concentration [5]: Up to 11742 ng/ ml ng/mL | Tg Mice Amyloid plaque abundance at 3 mg/kg (Aβ deposits; daily oral gavage 3 mg/kg): No change | Tg Mice soluble brain amyloid burden at 3 mg/kg (Aβ deposits; daily oral gavage 3 mg/kg): No change | Tg Mice % difference in insoluble brain amyloid burden at 3 mg/kg (Aβ deposits; daily oral gavage 3 mg/kg, ex-outlier): −24%

CC(C)Cn1cnc2c(O)c(I)ccc2c1=O [PB 1152]
IC50 (Aβ 1-42): 310 nM | Cytotox (% viable) M17 cells at 1 μM [2]: 95.7% | Cytotox (% viable) M17 cells at 10 μM [2]: 71.2% | Disaggregation % Aggregate reduction at 5 μM [4]: 56% | EC50 [4]: > 20000 nM | Mice plasma concentration at 10 mg/kg [5]: At 10 mg/kg: Up to 309 ng/ml ng/mL | Toxicity at 10 mg/kg [6]: At 10 mg/kg 10 days, none

CCCn1cnc2c(O)c(I)ccc2c1=S [PB 1165]
IC50 (Aβ 1-42): 890 nM | Cytotox (% viable) M17 cells at 1 μM [2]: 96.7% | Cytotox (% viable) M17 cells at 10 μM [2]: 107.1% | Disaggregation % Aggregate reduction at 5 μM [4]: 52% | EC50 [4]: 4700 nM | Mice plasma concentration [5]: Up tp 1593 ng/ ml ng/mL | Tg Mice % difference from control in Amyloid plaque abundance (Aβ deposits): Decrease | Tg Mice % difference from control in insoluble brain amyloid burden (Aβ deposits): No change | Tg Mice % difference from control in soluble brain amyloid burden (Aβ deposits): No change | Toxicity at 30 mg/kg [6]: 10 days, none

O=c1c2c(Cl)cc(Cl)c(O)c2ncn1Cc1cn2ccccc2n1 [PB 1239]
IC50 (Aβ 1-42): 480 nM | Cytotox (% viable) M17 cells at 1 μM [2]: 109.2% | Cytotox (% viable) M17 cells at 10 μM [2]: 98.2% | CuTy % inhibition of dityrosine oligomerization [7]: CuTy: 50% inhibition | Mice plasma concentration [5]: Up to 98.3 ng/ mL ng/mL | Toxicity at 30 mg/kg [6]: 10 days, none

O=c1c2c(Cl)cc(Cl)c(O)c2ncn1Cc1cccnc1 [PB 1240]
IC50 (Aβ 1-42): 320 nM | Cytotox (% viable) M17 cells at 1 μM [2]: 106.4% | Cytotox (% viable) M17 cells at 10 μM [2]: 100.2% | CuTy % inhibition of dityrosine oligomerization [7]: CuTy: 60% inhibition | Mice plasma concentration [5]: Up to 4023.4 ng/mL | Toxicity at 30 mg/kg [6]: 10 days, none

O=C1NC(=O)c2cc(-n3cnc4c(O)c(Cl)cc(Cl)c4c3=O)ccc21 [PB 1247]
IC50 (Aβ 1-42): 560 nM | Cytotox (% viable) M17 cells at 1 μM [2]: 101.2% | Cytotox (% viable) M17 cells at 10 μM [2]: 110.8% | CuTy % inhibition of dityrosine oligomerization [7]: CuTy: 150% inhibition | Toxicity at 30 mg/kg [6]: 10 days, none

CCc1c(O)c(=O)ccn1CC.Cl [PB 1270]
IC50 (Aβ 1-42): > 10000 nM | CuTy % inhibition of dityrosine oligomerization [7]: CuTy: 80% inhibition

CC(C)Cn1c(CN(C)C)nc2c(O)c(Cl)cc(Cl)c2c1=O.Cl [PB 1271]
IC50 (Aβ 1-42): 170 nM | Cytotox (% viable) M17 cells at 1 μM [2]: 104.4% | Cytotox (% viable) M17 cells at 10 μM [2]: 61.5% | CuTy % inhibition of dityrosine oligomerization [7]: CuTy: 50% inhibition

O=c1c2c(Cl)cc(Cl)c(O)c2ncn1Nc1ccc(F)cc1F [PB-1100]
Cytotox (% viable) Neuronal cells at 1 μM [1]: 100% | Cytotox (% viable) Neuronal cells at 10 μM [1]: 92% | Cytotox (% viable) M17 cells at 1 μM [2]: 108.1% | Cytotox (% viable) M17 cells at 10 μM [2]: 80.5% | CuTy % inhibition of dityrosine oligomerization [7]: CuTy: 10% inhibition | Disaggregation % Aggregate reduction at 5 μM [4]: 42% | Mice plasma concentration [5]: Up to 1,130.6 ng/mL | Toxicity at 30 mg/kg [6]: 10 days, none
